# According to PubChem BioAssay (NCI):
#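 Protocol summary: plate cells (96-well), add compound at 5 concentrations, incubate 48 h, interpolate endpoints linearly. Abbreviation: GI50, concentration required for 50% inhibition of growth. TGI: total growth inhibition.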
# What was measured:
# Test in all cases: NCI tumour cell line growth inhibition, 48 h
# [1] = tested on: CCRF-CEM leukemia
# [2] = tested on: HL-60(TB) leukemia
# [3] = tested on: KM12 colon
# [4] = tested on: DMS 114 small cell lung
# [5] = tested on: HCT-15 colon
# [6] = tested on: TK-10 renal
# [7] = tested on: SK-MEL-5 melanoma
# [8] = tested on: SNB-19 CNS
# [9] = tested on: M19-MEL melanoma
# [10] = tested on: BT-549 breast
# [11] = tested on: MCF7 breast
SMILES,TGI [1],TGI [2],TGI [3],TGI [4],TGI [5],TGI [6],TGI [7],TGI [8],TGI [9],TGI [10],TGI [11],GI50 [1],GI50 [10],GI50 [2],GI50 [3],GI50 [11],GI50 [5],GI50 [6],GI50 [7],GI50 [8]
C=CCN1/C(=C2\SC(=S)N(c3ccc(C)cc3)C2=O)Sc2c1ncn(C)c2=O,> 100 µM,> 100 µM,> 100 µM,> 100 µM,> 100 µM,> 100 µM,> 100 µM,> 100 µM,> 100 µM,,,,,,,,,,,
CCN(CC)CCn1c(=O)c2c(C)c3oc4ccccc4oc3c(C)c2c1=O,> 100 µM,> 100 µM,> 100 µM,,> 100 µM,> 100 µM,> 100 µM,> 100 µM,,> 100 µM,> 100 µM,,,,,,,,,
CCOC(=O)/C=C(\C(=O)OCC)n1cc(Cl)c(=O)n(CC(=O)OCC)c1=O,36.1 µM,7.39 µM,34.9 µM,,13.4 µM,3.6 µM,29.1 µM,39 µM,,35.5 µM,8.07 µM,16.5 µM,,,,,,,,
Cc1cc(OCCOCCC(F)(F)P(=O)(O)O)ccc1CCc1cnc2c(N)nc3cc(CCC(=O)O)ccc3c2c1,> 100 µM,> 100 µM,> 100 µM,,> 100 µM,> 100 µM,> 100 µM,> 100 µM,,> 100 µM,> 100 µM,> 100 µM,> 100 µM,> 100 µM,> 100 µM,> 100 µM,> 100 µM,> 100 µM,> 100 µM,> 100 µM
CN(CCCNC(=O)c1nn(C)c2c1Cc1ccccc1-2)CCCNC(=O)c1nn(C)c2c1Cc1ccccc1-2,10.9 µM,10.8 µM,35.4 µM,,40.4 µM,36.2 µM,29.8 µM,26.4 µM,,47.2 µM,31.2 µM,,,,,,,,,
COC(=O)[C@]1(c2ccc(N(C)C)cc2OC)C[C@@H]2CCCN(CCc3c1[nH]c1ccccc31)C2,> 84.3 µM,27.3 µM,> 55.9 µM,30.9 µM,46.6 µM,,31.4 µM,> 100 µM,32.8 µM,,30.7 µM,,,,,,,,,
Cc1nc2ccc(F)cc2c(Cl)c1CCCl,48.4 µM,35 µM,> 100 µM,,> 100 µM,> 100 µM,52.7 µM,> 100 µM,,> 100 µM,90.1 µM,,,,,,,,,
C=CC(C)C1(CCCOCc2ccccc2)C(=S)N2CCC3(CC24CCCC14)OCCO3 (stereo not drawn),> 100 µM,5.2 µM,> 100 µM,> 100 µM,> 100 µM,> 100 µM,,> 100 µM,> 100 µM,,,,,,,,,,,
O=c1[nH]nc(Nc2ccccc2)c2nnn(C3CCCCC3)c12,> 100 µM,> 100 µM,> 100 µM,,> 100 µM,> 100 µM,> 100 µM,> 100 µM,,> 100 µM,> 100 µM,,,,,,,,,
Cn1c2ccccc2c2cc(N3CCCC3)c3c(c21)C(=O)N(c1ccccc1)C3=O,> 100 µM,> 100 µM,> 100 µM,,> 100 µM,> 100 µM,> 100 µM,> 100 µM,,> 100 µM,> 100 µM,,,,,,,,,
O=C(O)c1c2c(cc3c1CC1(Cc4cc5c(cc4C1=O)CCC5)C3)CCC2 (stereo not drawn),> 100 µM,> 100 µM,> 100 µM,,> 100 µM,> 100 µM,> 100 µM,> 100 µM,,> 100 µM,> 100 µM,,,,,,,,,
Cc1c(C)c(C)c(-n2c(=O)n(C)c(=O)n2-c2cc(C(C)(C)C)cc(C(C)(C)C)c2O)c(C)c1C,30.8 µM,11.4 µM,> 45.3 µM,,22.5 µM,24.5 µM,18.5 µM,20.9 µM,,28.1 µM,16.6 µM,,,,,,,,,
CNC(=O)SCC(NC(=O)CCC(N)C(=O)O)C(=O)NCC(=O)O (stereo not drawn),> 100 µM,> 31.6 µM,> 100 µM,> 100 µM,> 100 µM,,> 100 µM,> 100 µM,> 100 µM,,> 100 µM,,,,,,,,,
CC(C(=O)c1ccncc1)c1ccccn1 (stereo not drawn),> 100 µM,> 100 µM,> 100 µM,,> 100 µM,> 100 µM,> 100 µM,> 100 µM,,> 100 µM,> 100 µM,,,,,,,,,
Cc1cc2n[n+]3[n-]cc(-c4ccccc4)n3c2cc1[N+](=O)[O-],> 100 µM,> 100 µM,> 100 µM,,> 100 µM,> 100 µM,> 100 µM,> 100 µM,,> 100 µM,> 100 µM,,,,,,,,,
Cc1ccc(S(=O)(=O)C2=c3nc4ccccc4cc3=C3C(=O)c4ccccc4C(=O)C32)cc1 (stereo not drawn),> 100 µM,> 100 µM,> 100 µM,> 100 µM,> 100 µM,> 100 µM,> 100 µM,> 100 µM,> 100 µM,,,,,,,,,,,
